Experimental data as given in ChEMBL document CHEMBL6153103, “Novel Bioorthogonal Theranostic Scaffold Enables on-Target Drug Release and Real Time Monitoring In Vivo” (J Med Chem, 2025).
Calls of active or inactive are those of the source. The rule behind the calls is not given here.

Tests used:
A549 [1] = assay: Cytotoxicity against human A549 cells assessed as cell viability incubated for 72 hrs by CCK-8 assay; assay type: functional, cell-based; conditions: A549, 72 h
A549 [2] = assay: Cytotoxicity against human A549 cells assessed as inhibition of cell proliferation upto 20 uM incubated for 72 hrs by CCK-8 assay; assay type: functional, cell-based
[3] = Prodrug release in human A549 cells assessed as DOX release by measuring increase in fluorescence intensity at 50 uM measured after 2 hrs by confocal microscopy; assay type: ADME, cell-based; conditions: a549, 2 h
[4] = Drug uptake in human HeLa cells assessed as increase in blue fluorescence intensity at 100 uM incubated for 1 hr by confocal fluorescence microscopic analysis; assay type: ADME, cell-based
[5] = Drug uptake in human HEK293T cells assessed as increase in blue fluorescence intensity at 100 uM incubated for 1 hr by confocal fluorescence microscopic analysis; assay type: ADME, cell-based; conditions: hek-293t
HeLa [6] = assay: Cytotoxicity against human HeLa cells assessed as inhibition of cell proliferation incubated for 72 hrs by CCK-8 assay; assay type: functional, cell-based
A549 [7] = assay: Cytotoxicity against human A549 cells assessed as inhibition of cell proliferation incubated for 72 hrs in presence of 10 uM 4-(6-methyl-1,2,4,5-tetrazin-3-yl)benzyl 3-(2-hydroxyethoxy)-2,3-dihydrophenanthro[9,10-b][1,4]dioxine-7-carboxylate by CCK-8 assay; assay type: functional, cell-based; conditions: A549, 72 h
A549 [8] = assay: Cytotoxicity against human A549 cells assessed as inhibition of cell proliferation incubated for 72 hrs by CCK-8 assay; assay type: functional, cell-based; conditions: A549, 72 h
A549 [9] = assay: Cytotoxicity against human A549 cells assessed as inhibition of cell proliferation incubated for 72 hrs in presence of 60 uM 4-(6-methyl-1,2,4,5-tetrazin-3-yl)benzyl 3-(2-hydroxyethoxy)-2,3-dihydrophenanthro[9,10-b][1,4]dioxine-7-carboxylate by CCK-8 assay; assay type: functional, cell-based; conditions: A549, 72 h
A549 [10] = assay: Cytotoxicity against human A549 cells assessed as inhibition of cell proliferation incubated for 72 hrs in presence of 80 uM 4-(6-methyl-1,2,4,5-tetrazin-3-yl)benzyl 3-(2-hydroxyethoxy)-2,3-dihydrophenanthro[9,10-b][1,4]dioxine-7-carboxylate by CCK-8 assay; assay type: functional, cell-based; conditions: A549, 72 h
[11] = Prodrug activation in human A549 cells xenografted in BALB/c nude mouse assessed as blue fluorescence intensity in tumor at 5 mg/kg, ip administered for 1 hr by confocal microscopic analysis; assay type: organism-based; conditions: in vivo
[12] = Prodrug release in human A549 cells xenografted in BALB/c nude mouse assessed as DOX release by measuring change in green fluorescence intensity in tumor at 5 mg/kg, ip administered for 1 hr by DAPI staining based confocal microscopic analysis; assay type: ADME, organism-based; conditions: in vivo
A549 [13] = assay: Cytotoxicity against human A549 cells assessed as inhibition of cell proliferation incubated for 72 hrs in presence of 15 uM 4-(6-methyl-1,2,4,5-tetrazin-3-yl)benzyl 3-(2-hydroxyethoxy)-2,3-dihydrophenanthro[9,10-b][1,4]dioxine-7-carboxylate by CCK-8 assay; assay type: functional, cell-based; conditions: A549, 72 h
[14] = Prodrug release in human A549 cells assessed as DOX release by measuring increase in fluorescence intensity at 100 uM measured after 2 hrs by confocal microscopy; assay type: ADME, cell-based; conditions: a549, 2 h
HeLa [15] = assay: Cytotoxicity against human HeLa cells assessed as inhibition of cell proliferation incubated for 72 hrs 15 uM of 4-(6-methyl-1,2,4,5-tetrazin-3-yl)benzyl 3-(2-hydroxyethoxy)-2,3-dihydrophenanthro[9,10-b][1,4]dioxine-7-carboxylate by CCK-8 assay; assay type: functional, cell-based
HeLa [16] = assay: Cytotoxicity against human HeLa cells assessed as inhibition of cell proliferation incubated for 72 hrs 15 uM of (4-((2-((10-(((4-(6-methyl-1,2,4,5-tetrazin-3-yl)benzyl)oxy)carbonyl)-2,3-dihydrophenanthro[9,10-b][1,4]dioxin-2-yl)oxy)ethoxy)carbonyl)phenyl)boronic acid by CCK-8 assay; assay type: functional, cell-based
[17] = Cytotoxicity against human HEK293T cells assessed as inhibition of cell proliferation incubated for 72 hrs by CCK-8 assay; assay type: toxicity, cell-based, HEK-293T
[18] = Cytotoxicity against human HEK293T cells assessed as inhibition of cell proliferation incubated for 72 hrs 15 uM of 4-(6-methyl-1,2,4,5-tetrazin-3-yl)benzyl 3-(2-hydroxyethoxy)-2,3-dihydrophenanthro[9,10-b][1,4]dioxine-7-carboxylate by CCK-8 assay; assay type: toxicity, cell-based, HEK-293T
[19] = Cytotoxicity against human HEK293T cells assessed as inhibition of cell proliferation incubated for 72 hrs 15 uM of (4-((2-((10-(((4-(6-methyl-1,2,4,5-tetrazin-3-yl)benzyl)oxy)carbonyl)-2,3-dihydrophenanthro[9,10-b][1,4]dioxin-2-yl)oxy)ethoxy)carbonyl)phenyl)boronic acid by CCK-8 assay; assay type: toxicity, cell-based, HEK-293T

With `Cc1nnc(-c2ccc(COC(=O)c3ccc4c5c(c6ccccc6c4c3)OCC(OCCO)O5)cc2)nn1` (centres undefined) the EC50 (A549 [1]) was over 50 µM, the Activity (A549 [2]) was “Active” and the Drug metabolism [3] was “metabolite_detected”. The Drug uptake [4] was “Not_active” and the Drug uptake [5] was “Not_active”.

`COc1cccc2c1C(=O)c1c(O)c3c(c(O)c1C2=O)C[C@@](O)(C(=O)CO)C[C@@H]3O[C@H]1C[C@H](N)[C@H](O)[C@H](C)O1` [DOXORUBICIN] gave an IC50 (HeLa [6]) of 0.014 µM.

Compound `[C-]#[N+]CCCOC(=O)N1[C@H]2[C@@H]1CN1C3=C(C(=O)C(N)=C(C)C3=O)[C@@H](COC(N)=O)[C@@]21OC` has an IC50 (A549 [7]) of 0.313 µM, an IC50 (A549 [8]) of 0.359 µM and an IC50 (A549 [9]) of 0.239 µM. For the same compound, the IC50 (A549 [10]) was 0.239 µM.

With `Cc1nnc(-c2ccc(COC(=O)c3ccc4c5c(c6ccccc6c4c3)OCC(OCCO)O5)cc2)c2c1CCCCCC2` (centres undefined) the EC50 (A549 [1]) was over 50 µM and the Activity (A549 [2]) was “Active”.

With `Cc1nnc(-c2ccc(COC(=O)c3ccc4c5c(c6ccccc6c4c3)OCC(OCCOC(=O)c3ccc(B(O)O)cc3)O5)cc2)nn1` (centres undefined) the Drug metabolism [11] was “metabolite_notdetected” and the Drug metabolism [12] was “metabolite_detected”.

Work on `CO[C@@]12[C@H](COC(N)=O)C3=C(C(=O)C(C)=C(N)C3=O)N1C[C@@H]1N[C@@H]12` [MITOMYCIN] yielded an IC50 (A549 [8]) of 0.03 µM.

`COc1cccc2c1C(=O)c1c(O)c3c(c(O)c1C2=O)C[C@@](O)(C(=O)CO)C[C@@H]3O[C@H]1C[C@H](NC(=O)OC2/C=C/CCCCC2)[C@H](O)[C@H](C)O1` (some centres undefined) showed an IC50 (A549 [7]) of 0.067 µM, an IC50 (A549 [8]) of 0.537 µM and an IC50 (A549 [13]) of 0.058 µM. For the same compound, the Drug metabolism [14] was “metabolite_detected”, the Drug uptake [4] was “Not_active” and the Drug uptake [5] was “Not_active”. The IC50 (HeLa [6]) was 0.989 µM, the IC50 (HeLa [15]) was 0.059 µM and the IC50 (HeLa [16]) was 0.03 µM. The IC50 at 72 h [17] was 1.15 µM, the IC50 at 72 h [18] was 0.126 µM and the IC50 at 72 h [19] was 0.145 µM. For the same compound, the Drug metabolism [11] was “metabolite_notdetected” and the Drug metabolism [12] was “metabolite_detected”.
